PubChem BioAssay (NCI)
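Cells were grown in 96-well plates and exposed to each compound for 48 hours at five concentrations; endpoints were interpolated linearly between bracketing concentrations, or set to the highest concentration if not reached. TGI marks complete inhibition of growth.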

Assays:
Experiment in all cases: NCI anticancer screen, dose series, 48 h
[1] = system: SNB-75 CNS
[2] = system: KM20L2 colon
[3] = system: NCI-H460 lung
[4] = system: OVCAR-8 ovarian
[5] = system: TK-10 renal
[6] = system: UO-31 renal
[7] = system: EKVX NSCLC
[8] = system: SK-MEL-2 melanoma
[9] = system: DLD-1 colon
[10] = system: HOP-18 NSCLC
[11] = system: U251 CNS
[12] = system: 786-0 renal
[13] = system: RXF-631 renal
[14] = system: CAKI-1 renal
[15] = system: LXFL 529 NSCLC
[16] = system: A498 renal
[17] = system: HCT-116 colon
[18] = system: DMS 114 small cell lung
[19] = system: SNB-19 CNS
[20] = system: SK-OV-3 ovarian
[21] = system: HT29 colon
[22] = system: KM12 colon
[23] = system: NCI-H522 lung
[24] = system: M19-MEL melanoma
[25] = system: LOX IMVI melanoma
[26] = system: SF-268 CNS
[27] = system: OVCAR-5 ovarian
[28] = system: NCI-H23 lung
[29] = system: HCT-15 colon
[30] = system: SR leukemia
[31] = system: UACC-257 melanoma
[32] = system: RXF 393 renal
[33] = system: XF 498 CNS
[34] = system: SW-620 colon
[35] = system: OVCAR-4 ovarian
[36] = system: M14 melanoma
[37] = system: SF-295 CNS
[38] = system: COLO 205 colon
[39] = system: UACC-62 melanoma
[40] = system: HOP-92 NSCLC
[41] = system: MALME-3M melanoma
[42] = system: DMS 273 small cell lung
[43] = system: HL-60(TB) leukemia
[44] = system: SK-MEL-28 melanoma
[45] = system: K-562 leukemia
[46] = system: OVCAR-3 ovarian
[47] = system: HOP-62 NSCLC
[48] = system: HCC-2998 colon
[49] = system: SN12C renal
[50] = system: MOLT-4 leukemia
[51] = system: SK-MEL-5 melanoma
[52] = system: IGROV1 ovarian
[53] = system: CCRF-CEM leukemia
[54] = system: ACHN renal
[55] = system: NCI-H226 lung
[56] = system: SNB-78 CNS
[57] = system: SF-539 CNS
[58] = system: A549 NSCLC

Measured: TGI

CCOC(=O)C1C(=O)CN2CCc3c([nH]c4ccccc34)C12C(=O)OCC (stereo not drawn)
> 100 µM: [1] | [2] | [3] | [4] | [5] | [6] | [7] | [8] | [9] | [10] | [11] | [12] | [13] | [14] | [15] | [16] | [17] | [18] | [19] | [20] | [21] | [22] | [23] | [24] | [25] | [26] | [27] | [28] | [29] | [30] | [31] | [32] | [33] | [34] | [35] | [36] | [37] | [38] | [39] | [40] | [41] | [42] | [43] | [44] | [45] | [46] | [47] | [48] | [49] | [50] | [51] | [52] | [53] | [54] | [55] | [56] | [57] | [58]
